Test results from ChEMBL document CHEMBL5104188, “Discovery and Characterization of Synthesized and FDA-Approved Inhibitors of Clostridial and Bacillary Collagenases” (J Med Chem, 2022).
≈ marks a conversion by molar mass, not a printed value. Calls of active or inactive are those of the source. The calls are words filed in the database; no cut-off is given here.

Experiments:
Collagenase ColH [1] = target: T1, Collagenase ColH (Hathewaya histolytica, UniProt Q46085); test: Inhibition of Clostridium histolyticum CoLH assessed as inhibition constant using M MOCAcPro-Leu-Gly-Leu-A2pr-(DNP)Ala-Arg-NH2 as substrate incubated for 10 mins by fluorescence spectrophotometer analysis
T1 sequence (Q46085 whole entry): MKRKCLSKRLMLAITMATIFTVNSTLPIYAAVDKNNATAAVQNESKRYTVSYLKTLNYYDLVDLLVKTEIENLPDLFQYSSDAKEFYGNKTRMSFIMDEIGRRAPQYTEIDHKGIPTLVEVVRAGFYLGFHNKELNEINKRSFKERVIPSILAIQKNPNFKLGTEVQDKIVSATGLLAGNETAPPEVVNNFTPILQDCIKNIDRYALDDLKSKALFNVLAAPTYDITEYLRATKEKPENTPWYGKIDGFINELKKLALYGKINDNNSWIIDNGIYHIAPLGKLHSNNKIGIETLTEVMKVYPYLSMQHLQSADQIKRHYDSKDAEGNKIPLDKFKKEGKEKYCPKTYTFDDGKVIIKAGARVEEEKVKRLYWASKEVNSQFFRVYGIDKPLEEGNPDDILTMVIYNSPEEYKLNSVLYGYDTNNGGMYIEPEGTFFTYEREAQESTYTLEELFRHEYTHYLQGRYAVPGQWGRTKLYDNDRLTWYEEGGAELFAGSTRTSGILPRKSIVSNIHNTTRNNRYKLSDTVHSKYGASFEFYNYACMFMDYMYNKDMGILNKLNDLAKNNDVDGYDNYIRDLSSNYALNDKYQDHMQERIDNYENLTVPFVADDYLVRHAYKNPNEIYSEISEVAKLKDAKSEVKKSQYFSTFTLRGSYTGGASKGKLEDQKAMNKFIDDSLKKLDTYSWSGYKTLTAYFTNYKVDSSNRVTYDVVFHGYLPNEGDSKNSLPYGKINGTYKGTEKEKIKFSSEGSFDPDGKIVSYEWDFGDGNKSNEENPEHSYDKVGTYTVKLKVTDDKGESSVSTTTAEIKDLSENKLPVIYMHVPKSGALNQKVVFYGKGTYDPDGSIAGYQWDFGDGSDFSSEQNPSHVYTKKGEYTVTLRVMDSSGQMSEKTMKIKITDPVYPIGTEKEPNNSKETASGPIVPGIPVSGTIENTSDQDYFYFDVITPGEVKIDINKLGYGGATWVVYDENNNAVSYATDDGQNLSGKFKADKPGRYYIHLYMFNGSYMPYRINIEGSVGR

[2] = target: Collagenase ColQ1 (Bacillus cereus) (UniProt B9J3S4); conditions: dose 100.0 µM, time 144.0 sec
HepG2 = test: Cytotoxicity against human HepG2 cells assessed as reduction in cell viability; type: functional, cell-based
NHDF [3] = test: Inhibition of Bacillus cereus collagenase infected in NHDF cells assessed as suppression of gelatin lysis at 100 uM incubated for 1 to 6 hrs by coomassie brilliant blue staining based zymography analysis; type: cell-based; conditions: time 1-6 hrs
NHDF [4] = test: Inhibition of Bacillus cereus collagenase infected in NHDF cells assessed as prevention of cell detachment at 25 uM incubated for 1 to 6 hrs by coomassie brilliant blue staining based SDS-PAGE analysis; conditions: time 1-6 hrs
NHDF [5] = test: Inhibition of Bacillus cereus collagenase infected in NHDF cells assessed as protection of spindle shape morphology at > 50 uM incubated for 1 to 6 hrs by coomassie brilliant blue staining based SDS-PAGE analysis; type: cell-based; conditions: time 1-6 hrs
NHDF [6] = test: Inhibition of Bacillus cereus collagenase infected in NHDF cells assessed as reduction in LDH release at > 50 uM incubated for 30 mins by LDH assay; type: cell-based
Bacillus cereus [7] = test: In vivo inhibition of Bacillus cereus AH187 ColQ1 infected in Galleria mellonella larvae assessed as increase in survival rate at 100 uM incubated for 3 days; type: functional; conditions: AH187, 72 h, time 3 day
[8] = target: Collagenase ColA (Bacillus cereus) (UniProt Q81BJ6); test: Reversible inhibition of Bacillus cereus collagenase unit ColA at 4.375 uM using quenched fluorescent FSI-1 as substrate incubated for 2 min by rapid dilution assay
[9] = target: T2, Collagenase ColH (Hathewaya histolytica) (UniProt Q46085); test: Reversible inhibition of Clostridium histolyticum peptidase domain of ColH at 1.25 uM using quenched fluorescent FSI-1 as substrate incubated for 2 min by rapid dilution assay
T2 sequence (whole entry): T1 sequence (Q46085 whole entry)

[10] = target: T3, Collagenase ColG (Clostridium histolyticum) (UniProt Q9X721); test: Reversible inhibition of Clostridium histolyticum collagenase unit of ColG at 7.5 uM using quenched fluorescent FSI-1 as substrate incubated for 2 min by rapid dilution assay; conditions: Hathewaya histolytica
T3 sequence (whole entry): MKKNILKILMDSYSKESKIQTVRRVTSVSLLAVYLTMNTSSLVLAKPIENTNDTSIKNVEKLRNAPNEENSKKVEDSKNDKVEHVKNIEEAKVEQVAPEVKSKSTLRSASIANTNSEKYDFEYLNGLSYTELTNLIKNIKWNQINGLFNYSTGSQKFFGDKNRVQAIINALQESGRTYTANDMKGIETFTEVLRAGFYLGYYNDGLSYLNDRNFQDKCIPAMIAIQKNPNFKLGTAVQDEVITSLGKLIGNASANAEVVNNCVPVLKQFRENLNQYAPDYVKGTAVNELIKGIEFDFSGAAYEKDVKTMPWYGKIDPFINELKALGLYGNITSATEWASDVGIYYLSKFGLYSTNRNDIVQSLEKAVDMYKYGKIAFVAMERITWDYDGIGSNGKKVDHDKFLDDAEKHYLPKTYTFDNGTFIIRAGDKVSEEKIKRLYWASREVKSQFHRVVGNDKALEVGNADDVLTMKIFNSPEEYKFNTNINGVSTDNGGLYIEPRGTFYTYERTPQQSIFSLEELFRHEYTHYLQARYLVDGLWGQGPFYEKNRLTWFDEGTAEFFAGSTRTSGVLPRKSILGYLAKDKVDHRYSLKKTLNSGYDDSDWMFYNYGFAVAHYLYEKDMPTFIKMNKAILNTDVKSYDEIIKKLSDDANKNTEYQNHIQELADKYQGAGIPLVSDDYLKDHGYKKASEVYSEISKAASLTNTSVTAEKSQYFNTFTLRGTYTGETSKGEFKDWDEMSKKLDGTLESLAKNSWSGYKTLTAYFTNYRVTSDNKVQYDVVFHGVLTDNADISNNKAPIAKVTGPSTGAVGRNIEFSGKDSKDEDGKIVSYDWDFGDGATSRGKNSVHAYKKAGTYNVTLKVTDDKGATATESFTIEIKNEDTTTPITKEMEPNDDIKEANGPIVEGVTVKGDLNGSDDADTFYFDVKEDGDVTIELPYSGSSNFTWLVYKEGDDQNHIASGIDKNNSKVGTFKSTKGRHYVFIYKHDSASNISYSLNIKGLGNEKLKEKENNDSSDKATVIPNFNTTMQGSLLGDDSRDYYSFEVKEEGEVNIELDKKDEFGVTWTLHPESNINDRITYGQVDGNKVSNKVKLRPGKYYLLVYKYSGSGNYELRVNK

Collagenase ColH [11] = target: T1, Collagenase ColH; test: Inhibition of Clostridium histolyticum CoLH using M MOCAcPro-Leu-Gly-Leu-A2pr-(DNP)Ala-Arg-NH2 as substrate incubated for 10 mins by fluorescence spectrophotometer analysis
[12] = target: 72 kDa type IV collagenase (Homo sapiens, UniProt P08253); test: Inhibition of human MMP-2 assessed as inhibition constant using AcProLeuGly-S-LeuLeuGlyOEt as substrate by spectrophotometer analysis
Neutrophil collagenase = Neutrophil collagenase (Homo sapiens, UniProt P22894); test: Inhibition of human MMP-8 assessed as inhibition constant using AcProLeuGly-S-LeuLeuGlyOEt as substrate by spectrophotometer analysis
NHDF [13] = test: Inhibition of Bacillus cereus collagenase infected in NHDF cells assessed as reduction in cell viability at 100 uM; type: cell-based
NHDF [14] = test: Inhibition of Bacillus cereus collagenase infected in NHDF cells assessed as prevention of cell detachment at 100 uM incubated for 1 to 6 hrs by coomassie brilliant blue staining based SDS-PAGE analysis; conditions: time 1-6 hrs
NHDF [15] = test: Inhibition of Bacillus cereus collagenase infected in NHDF cells assessed as protection of spindle shape morphology at > 100 uM incubated for 1 to 6 hrs by coomassie brilliant blue staining based SDS-PAGE analysis; type: cell-based; conditions: time 1-6 hrs
NHDF [16] = test: Inhibition of Bacillus cereus collagenase infected in NHDF cells assessed as fibrillar extra cellular matrix at > 100 uM incubated for 1 to 6 hrs by coomassie brilliant blue staining based SDS-PAGE analysis; type: cell-based; conditions: time 1-6 hrs
NHDF [17] = test: Inhibition of Bacillus cereus collagenase infected in NHDF cells assessed as reduction in LDH release at > 100 uM incubated for 30 mins by LDH assay; type: cell-based
NHDF [18] = test: Inhibition of Bacillus cereus collagenase infected in NHDF cells assessed as reduction in cell viability at 25 to 100 uM; type: cell-based; conditions: dose 25-100 µM
NHDF [19] = test: Inhibition of Bacillus cereus collagenase infected in NHDF cells assessed as prevention of cell detachment at 25 to 100 uM incubated for 1 to 6 hrs by coomassie brilliant blue staining based SDS-PAGE analysis; conditions: dose 25-100 µM, time 1-6 hrs
NHDF [20] = test: Inhibition of Bacillus cereus collagenase infected in NHDF cells assessed as suppression of gelatin lysis incubated for 1 to 6 hrs by coomassie brilliant blue staining based zymography analysis; type: cell-based; conditions: dose 12.5-100 µM, time 1-6 hrs
[21] = target: Collagenase ColA (Bacillus cereus) (UniProt Q81BJ6); test: Irreversible inhibition of Bacillus cereus collagenase unit ColA at 0.125 uM using quenched fluorescent FSI-1 as substrate incubated for 2 min by rapid dilution assay
NHDF [22] = test: Inhibition of Bacillus cereus collagenase infected in NHDF cells assessed as suppression of gelatin lysis at 200 uM incubated for 1 to 6 hrs by coomassie brilliant blue staining based zymography analysis; type: cell-based; conditions: time 1-6 hrs
Collagenase ColH [23] = target: T1, Collagenase ColH; test: Inhibition of Clostridium histolyticum CoLH
[24] = Stability of compound in DMEM medium at 200 uM incubated for 2 hrs by LC-MS analysis; type: physicochemical
[25] = target: Collagenase ColQ1 (Bacillus cereus) (UniProt B9J3S4); test: Inhibition of full length Bacillus cereus ColQ1 assessed as reduction in Col 1 cleavage at 1.5 to 12.5 uM incubated for 3 hrs by SDS-PAGE analysis; conditions: dose 1.5-12.5 µM
Bacillus cereus [26] = test: Antibacterial activity against Bacillus cereus AH187 assessed as minimal inhibitory concentration incubated for 48 hrs microplate reader analysis; type: functional
Bacillus cereus [27] = test: In vivo inhibition of Bacillus cereus AH187 ColQ1 infected in Galleria mellonella larvae assessed as increase in survival rate at 200 uM incubated for 3 days; type: functional; conditions: AH187, 72 h, time 3 day

Collagenase ColA (Bacillus cereus), sequence (Q81BJ6 whole entry, the tested form may be a part): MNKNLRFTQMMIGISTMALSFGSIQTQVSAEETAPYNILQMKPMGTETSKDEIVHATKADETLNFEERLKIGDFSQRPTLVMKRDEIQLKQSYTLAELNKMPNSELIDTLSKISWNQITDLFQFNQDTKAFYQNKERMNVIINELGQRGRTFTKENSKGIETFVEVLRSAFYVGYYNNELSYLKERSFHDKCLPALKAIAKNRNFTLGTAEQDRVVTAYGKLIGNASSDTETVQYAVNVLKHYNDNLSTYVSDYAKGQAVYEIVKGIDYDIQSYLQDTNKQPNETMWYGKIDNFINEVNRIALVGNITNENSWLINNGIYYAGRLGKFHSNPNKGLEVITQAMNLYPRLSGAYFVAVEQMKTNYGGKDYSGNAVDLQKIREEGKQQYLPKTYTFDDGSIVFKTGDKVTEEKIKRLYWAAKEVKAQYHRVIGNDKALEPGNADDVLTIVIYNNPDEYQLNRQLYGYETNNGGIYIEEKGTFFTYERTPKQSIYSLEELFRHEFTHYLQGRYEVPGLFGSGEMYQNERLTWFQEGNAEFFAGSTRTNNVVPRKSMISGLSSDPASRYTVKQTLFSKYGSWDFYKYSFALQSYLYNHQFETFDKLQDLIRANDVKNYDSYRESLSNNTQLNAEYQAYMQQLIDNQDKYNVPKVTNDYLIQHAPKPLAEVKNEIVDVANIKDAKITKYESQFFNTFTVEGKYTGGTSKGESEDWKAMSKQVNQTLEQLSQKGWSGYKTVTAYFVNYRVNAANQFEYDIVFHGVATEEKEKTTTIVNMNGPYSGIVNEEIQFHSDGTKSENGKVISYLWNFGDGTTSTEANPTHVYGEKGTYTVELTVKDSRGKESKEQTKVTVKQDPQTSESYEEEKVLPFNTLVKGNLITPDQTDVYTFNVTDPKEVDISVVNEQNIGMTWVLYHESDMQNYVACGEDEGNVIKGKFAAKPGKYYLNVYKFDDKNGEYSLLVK
Collagenase ColQ1 (Bacillus cereus), sequence (B9J3S4 whole entry): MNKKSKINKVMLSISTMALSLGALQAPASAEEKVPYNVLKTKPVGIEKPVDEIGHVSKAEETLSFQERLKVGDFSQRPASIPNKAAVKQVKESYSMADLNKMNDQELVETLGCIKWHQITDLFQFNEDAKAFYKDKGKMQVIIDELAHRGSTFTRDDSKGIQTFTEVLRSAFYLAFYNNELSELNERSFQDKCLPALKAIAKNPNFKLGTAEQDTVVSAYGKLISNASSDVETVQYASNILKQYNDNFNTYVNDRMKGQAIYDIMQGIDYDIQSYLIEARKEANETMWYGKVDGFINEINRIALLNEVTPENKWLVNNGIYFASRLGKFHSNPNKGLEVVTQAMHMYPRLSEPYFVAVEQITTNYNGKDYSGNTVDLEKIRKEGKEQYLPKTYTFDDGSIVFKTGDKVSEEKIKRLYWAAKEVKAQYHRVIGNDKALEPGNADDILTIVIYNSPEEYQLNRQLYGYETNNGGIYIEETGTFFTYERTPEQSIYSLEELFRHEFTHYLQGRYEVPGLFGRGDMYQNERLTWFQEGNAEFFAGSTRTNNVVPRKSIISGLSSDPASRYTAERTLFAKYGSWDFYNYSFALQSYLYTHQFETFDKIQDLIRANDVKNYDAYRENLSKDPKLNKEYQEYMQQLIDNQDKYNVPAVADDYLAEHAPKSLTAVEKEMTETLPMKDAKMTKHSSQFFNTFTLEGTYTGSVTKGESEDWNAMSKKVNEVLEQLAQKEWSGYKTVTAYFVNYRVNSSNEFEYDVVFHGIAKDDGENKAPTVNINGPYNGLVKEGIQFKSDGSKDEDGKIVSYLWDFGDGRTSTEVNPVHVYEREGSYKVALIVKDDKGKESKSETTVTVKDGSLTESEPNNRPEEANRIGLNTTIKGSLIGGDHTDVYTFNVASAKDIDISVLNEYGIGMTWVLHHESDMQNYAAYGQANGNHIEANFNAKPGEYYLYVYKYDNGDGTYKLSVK
Neutrophil collagenase, sequence (P22894 whole entry): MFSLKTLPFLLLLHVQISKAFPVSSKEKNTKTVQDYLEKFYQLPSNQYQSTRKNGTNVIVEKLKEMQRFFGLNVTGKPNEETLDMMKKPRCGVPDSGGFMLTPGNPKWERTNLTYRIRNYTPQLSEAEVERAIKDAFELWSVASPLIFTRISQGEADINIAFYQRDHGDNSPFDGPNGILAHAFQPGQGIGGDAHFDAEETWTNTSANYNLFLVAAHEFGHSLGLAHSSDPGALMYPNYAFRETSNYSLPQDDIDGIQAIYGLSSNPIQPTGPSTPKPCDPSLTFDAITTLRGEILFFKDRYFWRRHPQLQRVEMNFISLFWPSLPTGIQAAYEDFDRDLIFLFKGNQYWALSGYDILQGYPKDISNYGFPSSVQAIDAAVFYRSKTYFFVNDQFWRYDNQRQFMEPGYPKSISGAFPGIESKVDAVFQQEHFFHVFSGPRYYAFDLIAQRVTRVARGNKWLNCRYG
72 kDa type IV collagenase, sequence (P08253 whole entry): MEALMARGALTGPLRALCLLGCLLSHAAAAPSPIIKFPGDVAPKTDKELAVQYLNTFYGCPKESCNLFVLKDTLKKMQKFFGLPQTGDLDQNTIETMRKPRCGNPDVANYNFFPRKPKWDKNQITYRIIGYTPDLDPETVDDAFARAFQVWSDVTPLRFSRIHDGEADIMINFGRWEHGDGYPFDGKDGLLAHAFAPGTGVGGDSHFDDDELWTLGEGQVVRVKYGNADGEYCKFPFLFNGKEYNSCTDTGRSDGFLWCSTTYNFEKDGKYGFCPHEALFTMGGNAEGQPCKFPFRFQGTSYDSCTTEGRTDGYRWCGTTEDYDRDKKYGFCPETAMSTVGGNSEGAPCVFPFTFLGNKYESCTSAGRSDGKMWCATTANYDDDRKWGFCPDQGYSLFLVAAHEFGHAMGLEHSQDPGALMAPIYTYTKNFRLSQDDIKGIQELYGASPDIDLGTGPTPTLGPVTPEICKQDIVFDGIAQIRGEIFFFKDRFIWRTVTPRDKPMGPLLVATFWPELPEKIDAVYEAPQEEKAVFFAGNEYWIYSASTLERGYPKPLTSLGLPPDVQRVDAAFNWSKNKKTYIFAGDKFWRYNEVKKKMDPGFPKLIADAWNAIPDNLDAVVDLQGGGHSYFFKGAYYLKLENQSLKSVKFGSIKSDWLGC

CC(NC(=O)C(Cc1ccccc1)NC(=O)NS(=O)(=O)c1ccc(F)cc1)C(=O)Nc1nnc(S)s1 (centres undefined)
Ki (Collagenase ColH [1]): 200 nM

O=P(O)(O)c1nc2ccc(F)cc2nc1P(=O)(O)O
inhibition [2]: < 5%

O=C(Nc1ccc(Cl)c(Cl)c1)c1ccc2nc(P(=O)(O)O)c(P(=O)(O)O)nc2c1
IC50 (HepG2): > 100000 nM
inhibition (NHDF [3]): Active
inhibition (NHDF [4]): Active
inhibition (NHDF [5]): Active
inhibition (NHDF [6]): Active
inhibition in vivo at 100 µM (Bacillus cereus [7]): 50%

CC(=O)Nc1ccccc1OCc1cn(CCNC(=O)C(Cc2ccccc2)C(=O)NO)nn1 (centres undefined)
inhibition [8]: Active
inhibition [9]: Active
inhibition [10]: Active

O=C(O)CN(CC1c2ccccc2C=Cc2ccccc21)C(=O)NS(=O)(=O)c1ccc(F)cc1
IC50 (Collagenase ColH [11]): 21 nM
Ki [12]: 9 nM
Ki (Neutrophil collagenase): 13 nM

O=P(O)(O)c1nc2ccc(Br)cc2nc1P(=O)(O)O
inhibition (NHDF [3]): Active
inhibition (NHDF [13]): Active
inhibition (NHDF [14]): Active

O=P(O)(O)C(Sc1ccc(Cl)cc1)P(=O)(O)O
inhibition (NHDF [15]): Active
inhibition (NHDF [16]): Active
inhibition (NHDF [17]): Active

Cc1ccc2nc(P(=O)(O)O)c(P(=O)(O)O)nc2c1
inhibition (NHDF [3]): Active
inhibition (NHDF [18]): Active
inhibition (NHDF [19]): Active

COc1cc2ccc(=O)oc2cc1OC [SCOPARONE]
IC50 (Collagenase ColH [11]): 24 nM

O=P(O)(O)c1nc2ccc(-c3ccc(Cl)cc3)cc2nc1P(=O)(O)O
IC50 (HepG2): > 100000 nM
inhibition (NHDF [20]): Active
inhibition (NHDF [15]): Active
inhibition (NHDF [16]): Active
inhibition (NHDF [17]): Active
inhibition [9]: Active
inhibition [10]: Active
inhibition [21]: Active
inhibition in vivo at 100 µM (Bacillus cereus [7]): 35%

NCCCC(O)(P(=O)(O)O)P(=O)(O)O
inhibition (NHDF [22]): Active
inhibition (NHDF [15]): Active
inhibition (NHDF [16]): Active
inhibition (NHDF [17]): Active

CCOP(=O)(OCC)c1nc2ccc(OC)cc2nc1P(=O)(OCC)OCC
inhibition [2]: < 5%

CC(=O)c1ccc(NC(=O)CSC(N)=O)cc1
IC50 (Collagenase ColH [23]): 10 nM

CC(=O)Nc1ccccc1OCc1cn(CCNC(=O)C(CC(C)C)C(=O)NO)nn1 (centres undefined)
IC50 (HepG2): > 100000 nM
Stability [24]: Stable
inhibition [8]: Active
inhibition [9]: Active
inhibition [10]: Active

O=P(O)(O)c1nc2ccccc2nc1P(=O)(O)O
inhibition [25]: Active

O=P(O)(O)c1nc2cc(Cl)c(Cl)cc2nc1P(=O)(O)O
inhibition (NHDF [22]): Active
inhibition (NHDF [4]): Active
inhibition (NHDF [5]): Active
inhibition (NHDF [6]): Active
inhibition [9]: Active
inhibition [10]: Active
inhibition [21]: Active
MIC50 (Bacillus cereus [26]): 100 µM (≈ 35.9 µg/mL)
inhibition in vivo at 200 µM (Bacillus cereus [27]): 35%
